# Assay results taken from ChEMBL document CHEMBL3508140 (2016).
# Experiments:
# Homo sapiens = organism: Homo sapiens; assay: Binding of doxorubicin to plasma protein of human; format: cell-free
# in vivo [1] = conditions: Beagle, dog, plasma, iv, 1.27 mg/kg
# [2] = Terminal half-life of doxorubicin following intravenous doxorubicin at 1.27 mg.Kg-1 dose in dog; format: ADME, organism-based, Canis lupus familiaris, Beagle, Plasma; set-up: dose 1.27 mg.Kg-1, dosed compound id 2.46809e+06, dosed compound name Doxorubicin, route intravenous; conditions: in vivo
# [3] = Percentage of doxorubicin excreted unchanged in urine following doxorubicin at 60 mg.m-2 dose in cancer patients; format: ADME, organism-based; set-up: dose 60 mg.m-2, dosed compound id 2.46809e+06, dosed compound name Doxorubicin; conditions: human, at 60 mg/m2, read-out: Compound recovery
# [4] = Mean plasma clearance of doxorubicin following intravenous doxorubicin at 60 mg.m-2 dose in cancer patients; format: ADME, organism-based; conditions: human, read-out: CLp (converted)
# [5] = Mean AUC of doxorubicin following intravenous doxorubicin at 60 mg.m-2 dose in cancer patients; format: ADME, organism-based; conditions: human, plasma
# [6] = Detection of doxorubicin in heart following single intravenous doxorubicin at 10 mg.Kg-1 dose in female mouse bearing colon tumor; format: ADME, organism-based, BALB/c; set-up: dose 10 mg.Kg-1, dosed compound id 2.46809e+06, dosed compound name Doxorubicin, gender F, regimen Single, route intravenous, sampling time 48 h; conditions: in vivo
# [7] = Mean terminal half-life of doxorubicin following intravenous doxorubicin at 60 mg.m-2 dose in cancer patients; conditions: human, plasma
# [8] = Detection of doxorubicin in plasma following single intravenous doxorubicin at 10 mg.Kg-1 dose in female mouse bearing colon tumor; format: ADME, organism-based, BALB/c; set-up: dose 10 mg.Kg-1, dosed compound id 2.46809e+06, dosed compound name Doxorubicin, gender F, regimen Single, route intravenous, sampling time 48 h; conditions: in vivo
# [9] = AUC values (0-48 h) of doxorubicin in heart following single intravenous doxorubicin at 10 mg.Kg-1 dose in female mouse bearing colon tumor; format: ADME, organism-based, BALB/c; set-up: time < 48 hr, dose 10 mg.Kg-1, dosed compound id 2.46809e+06, dosed compound name Doxorubicin, gender F, regimen Single, route intravenous, sampling time 48 h; conditions: in vivo
# [10] = Increase in serum total cholesterol level following reference intravenous doxorubicin at 1 mg.Kg-1 per week in rat; format: toxicity, organism-based, SD; set-up: dose 1 mg.Kg-1, dosed compound id 2.46809e+06, dosed compound name Doxorubicin, dose level High, gender Mixed, regimen Once per week, route intravenous, sampling time 8-22 Week, study doses 0/0.3/0.6/1 mg.Kg-1; conditions: in vivo
# [11] = Decrease in albumin due to persistent proteinuria following reference intravenous doxorubicin at 1 mg.Kg-1 per week in rat; format: toxicity, organism-based, SD, Serum; set-up: dose 1 mg.Kg-1, dosed compound id 2.46809e+06, dosed compound name Doxorubicin, dose level High, gender Mixed, regimen Once per week, route intravenous, sampling time 36 Week, study doses 0/0.3/0.6/1 mg.Kg-1; conditions: in vivo
# [12] = Elimination of doxorubicin following doxorubicin at 60 mg.m-2 dose in cancer patients; format: ADME, organism-based, Plasma; conditions: human, in vivo, iv
# [13] = Plasma clearance of adriamycin following intravenous adriamycin at 1.27 mg.Kg-1 dose in dog; format: ADME, organism-based, Canis lupus familiaris; set-up: dose 1.27 mg.Kg-1, dosed compound id 2.46809e+06, dosed compound name Doxorubicin, route intravenous; conditions: Beagle, read-out: Clp
# [14] = Decrease in leukocytes observed following reference intravenous doxorubicin at 1 mg.Kg-1 per week in rat; format: toxicity, organism-based, SD, Blood; set-up: dose 1 mg.Kg-1, dosed compound id 2.46809e+06, dosed compound name Doxorubicin, dose level High, gender Mixed, regimen Once per week, route intravenous, sampling time 36 Week, study doses 0/0.3/0.6/1 mg.Kg-1; conditions: in vivo
# [15] = Incidence of leukocyturia following reference intravenous doxorubicin at 1 mg.Kg-1 per week in rat; format: toxicity, organism-based, SD; set-up: dose 1 mg.Kg-1, dosed compound id 2.46809e+06, dosed compound name Doxorubicin, dose level High, gender Mixed, regimen Once per week, route intravenous, sampling time 36 Week, study doses 0/0.3/0.6/1 mg.Kg-1; conditions: in vivo
# [16] = Mortality occurred following reference intravenous doxorubicin at 1 mg.Kg-1 per week in rat; format: toxicity, organism-based, SD; set-up: dose 1 mg.Kg-1, dosed compound id 2.46809e+06, dosed compound name Doxorubicin, dose level High, gender Mixed, regimen Once per week, route intravenous, sampling time 17 Week, study doses 0/0.3/0.6/1 mg.Kg-1; conditions: in vivo
# [17] = (§1) Urinary elimination of adriamycin following intravenous bolus adriamycin at 10 mg.Kg-1 dose in rat; format: ADME, organism-based; set-up: dose 10 mg.Kg-1, dosed compound id 2.46809e+06, dosed compound name Doxorubicin, route intravenous, sampling time 0-24 h; conditions: SD, urine, read-out: Compound recovery
# [18] = Volume of distribution at steady state following doxorubicin at 60 mg.m-2 dose in patients with cancer; format: ADME, organism-based; set-up: dose 60 mg.m-2, dosed compound id 2.46809e+06, dosed compound name Doxorubicin; conditions: human, plasma, read-out: Vss
# [19] = Volume of distribution of adriamycin following intravenous adriamycin at 1.27 mg.Kg-1 dose in dog; format: ADME, organism-based, Canis lupus familiaris; set-up: dose 1.27 mg.Kg-1, dosed compound id 2.46809e+06, dosed compound name Doxorubicin, route intravenous; conditions: Beagle, plasma
# [20] = AUC values (0-48 h) of doxorubicin in plasma following single intravenous doxorubicin at 10 mg.Kg-1 dose in female mouse bearing colon tumor; format: ADME, organism-based, BALB/c; set-up: time < 48 hr, dose 10 mg.Kg-1, dosed compound id 2.46809e+06, dosed compound name Doxorubicin, gender F, regimen Single, route intravenous, sampling time 48 h; conditions: in vivo
# [21] = AUC values (0-48 h) of doxorubicin in tumor following single intravenous doxorubicin at 10 mg.Kg-1 dose in female mouse bearing colon tumor; format: ADME, organism-based, BALB/c, Neoplasm; set-up: time < 48 hr, dose 10 mg.Kg-1, dosed compound id 2.46809e+06, dosed compound name Doxorubicin, gender F, regimen Single, route intravenous, sampling time 48 h; conditions: in vivo
# Albumin = Albumin (Homo sapiens, UniProt P02768); assay: Binding of doxorubicin to albumin; format: cell-free; conditions: read-out: Plasma protein binding (converted)
# [22] = Incidence of persistent proteinuria following reference intravenous doxorubicin at 1 mg.Kg-1 per week in rat; format: toxicity, organism-based, SD; set-up: dose 1 mg.Kg-1, dosed compound id 2.46809e+06, dosed compound name Doxorubicin, dose level High, gender Mixed, regimen Once per week, route intravenous, sampling time 36 Week, study doses 0/0.3/0.6/1 mg.Kg-1; conditions: in vivo
# in vivo [23] = conditions: female, BALB/c, mouse, heart, iv, 10 mg/kg
# in vivo [24] = conditions: female, BALB/c, mouse, tumor, iv, 10 mg/kg
# [25] = Detection of doxorubicin in tumor following single intravenous doxorubicin at 10 mg.Kg-1 dose in female mouse bearing colon tumor; format: ADME, organism-based, BALB/c, Neoplasm; set-up: dose 10 mg.Kg-1, dosed compound id 2.46809e+06, dosed compound name Doxorubicin, gender F, regimen Single, route intravenous, sampling time 48 h; conditions: in vivo
# [26] = Renal clearance of doxorubicin following doxorubicin at 60 mg.m-2 dose in cancer patients; format: ADME, organism-based, Kidney; conditions: human, in vivo, iv, read-out: Renal clearance (converted)
# [27] = as §1; format: ADME, organism-based; set-up: dose 10 mg.Kg-1, dosed compound id 2.46809e+06, dosed compound name Doxorubicin, route intravenous, sampling time 0-60 h; conditions: SD, urine, read-out: Compound recovery
# [28] = as §1; format: ADME, organism-based; set-up: dose 10 mg.Kg-1, dosed compound id 2.46809e+06, dosed compound name Doxorubicin, route intravenous, sampling time 0-6 h; conditions: SD, urine, read-out: Compound recovery
# in vivo [29] = conditions: female, BALB/c, mouse, plasma, iv, 10 mg/kg
# [30] = Increase in serum triglycerides level following reference intravenous doxorubicin at 1 mg.Kg-1 per week in rat; format: toxicity, organism-based, SD; set-up: dose 1 mg.Kg-1, dosed compound id 2.46809e+06, dosed compound name Doxorubicin, dose level High, gender Mixed, regimen Once per week, route intravenous, sampling time 8-22 Week, study doses 0/0.3/0.6/1 mg.Kg-1; conditions: in vivo
# [31] = Increase in serum phospholipid level following reference intravenous doxorubicin at 1 mg.Kg-1 per week in rat; format: toxicity, organism-based, SD; set-up: dose 1 mg.Kg-1, dosed compound id 2.46809e+06, dosed compound name Doxorubicin, dose level High, gender Mixed, regimen Once per week, route intravenous, sampling time 8-22 Week, study doses 0/0.3/0.6/1 mg.Kg-1; conditions: in vivo
# Albumin, sequence (P02768 whole entry): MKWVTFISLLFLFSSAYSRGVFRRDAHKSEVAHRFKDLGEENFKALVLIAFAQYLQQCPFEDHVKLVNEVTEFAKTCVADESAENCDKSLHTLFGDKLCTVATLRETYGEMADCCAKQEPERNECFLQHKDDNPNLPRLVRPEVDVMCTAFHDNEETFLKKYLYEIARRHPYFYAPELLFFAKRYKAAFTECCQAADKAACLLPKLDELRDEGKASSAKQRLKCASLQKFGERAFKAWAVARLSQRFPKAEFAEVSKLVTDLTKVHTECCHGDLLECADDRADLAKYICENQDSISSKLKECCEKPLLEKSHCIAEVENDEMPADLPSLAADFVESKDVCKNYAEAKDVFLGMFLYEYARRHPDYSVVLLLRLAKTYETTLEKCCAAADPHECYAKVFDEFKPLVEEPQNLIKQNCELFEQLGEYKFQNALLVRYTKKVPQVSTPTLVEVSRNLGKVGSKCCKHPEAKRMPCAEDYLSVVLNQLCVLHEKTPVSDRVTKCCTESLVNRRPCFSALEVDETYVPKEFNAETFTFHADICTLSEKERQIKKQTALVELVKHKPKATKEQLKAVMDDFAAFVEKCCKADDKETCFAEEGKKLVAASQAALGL
structure (smiles),measurement,setting,value
COc1cccc2c1C(=O)c1c(O)c3c(c(O)c1C2=O)C[C@@](O)(C(=O)CO)C[C@@H]3O[C@H]1C[C@H](N)[C@H](O)[C@H](C)O1 [DOXORUBICIN],PPB,Homo sapiens,71%
same,half-life,in vivo [1],5.4 min
same,t1/2,[2],VALUE = Shorter than doxorubicin
same,dose excreted at 7 Day,[3],9%
same,clearance,[4],950 mL/min
same,AUC,[5],1970 ng·h/mL
same,Compound recovery,[6],OUTCOME = Observed
same,half-life,[7],48 h
same,Compound recovery,[8],OUTCOME = Observed
same,AUC,[9],14100 nmol·min/g
same,CHOL_CHANGE,[10],OUTCOME = Increased
same,ALB_CHANGE,[11],OUTCOME = Decreased
same,Elimination,[12],OUTCOME = Observed
same,clearance,[13],607 mL/min
same,WBC_CHANGE,[14],45%
same,Incidence,[15],OUTCOME = Observed
same,Mortality,[16],"OUTCOME = Observed, N_AFFECTED = 9"
same,dose excreted,[17],2.77%
same,Vd,[18],33 L/kg
same,Vd,[19],19.1 L/kg
same,AUC,[20],204.9 nmol·min/mL
same,AUC,[21],8700 nmol·min/g
same,fraction unbound,Albumin,0.38
same,Incidence,[22],OUTCOME = Observed
same,half-life,in vivo [23],13.2 h
same,half-life,in vivo [24],32.1 h
same,Compound recovery,[25],OUTCOME = Observed
same,CL renal,[26],76.7 mL/min
same,dose excreted,[27],3.33%
same,dose excreted,[28],2.08%
same,half-life,in vivo [29],49.5 h
same,TRIG_CHANGE,[30],OUTCOME = Increased
same,PHOSLPD_CHANGE,[31],OUTCOME = Increased
